Measurements taken from US6921770B2 (priority 2000, dated 2005).

Tested on: rice blast fungi
Type: in vivo, Pyricularia grisea

Compound | Inhibiting Ratio (%) (at 250 ppm)
2-(2,4-dichloromethylphenylimino)-3-methyl-4-[N-(3-chlorophenyl)carbamoylmethyl]-1,3-thiazol-4-ine hydrobromide [Compound 60] | 100
2-(2,4-difluorophenylimino)-3-methyl-4-[N-(methoxyphenyl)carbamoylmethyl]-1,3-thiazol-4-ine [Compound 340] | 94
2-(2-fluorophenylimino)-3-methyl-4-[N-(methoxyphenyl)carbamoylmethyl]-1,3-thiazol-4-ine [Compound 338] | 97
2-(3-chloro-4-fluorophenylimino)-3-methyl-4-[N-(methoxyphenyl)carbamoylmethyl]-1,3-thiazol-4-ine [Compound 336] | 96
2-(3-fluorophenylimino)-3-methyl-4-[N-(methoxyphenyl)carbamoylmethyl]-1,3-thiazol-4-ine [Compound 337] | 95
Br.Cn1c(CC(=O)Nc2ccccc2)csc1=Nc1cccc(C(F)(F)F)c1 [Compound 1, 2-(3-trifluoromethylphenylimino)-3-methyl-4-(N-phenylcarbamoylmethyl)-1,3-thiazol-4-ine hydrobromide] | 75
Br.Cn1c(CC(=O)Nc2ccccc2)csc1=Nc1ccc(C(F)(F)F)cc1 [Compound 2, 2-(4-trifluoromethylphenylimino)-3-methyl-4-(N-phenylcarbamoylmethyl)-1,3-thiazol-4-ine hydrobromide] | 86
Br.Cn1c(CC(=O)Nc2ccccc2)csc1=Nc1ccc(Oc2ccccc2)cc1 [Compound 3, 2-(4-phenoxyphenylimino)-3-methyl-4-(N-phenylcarbamoylmethyl)-1,3-thiazol-4-ine hydrobromide] | 95
Br.Cc1ccc(NC(=O)Cc2csc(=Nc3cc(Cl)cc(Cl)c3)n2C)cc1 [Compound 4, 2-(3,5-dichlorophenylimino)-3-methyl-4-[N-(4-methylphenyl)carbamoylmethyl]-1,3-thiazol-4-ine hydrobromide] | 83
Br.Cc1ccc(NC(=O)Cc2csc(=Nc3cccc(C(F)(F)F)c3)n2C)cc1 [Compound 6, 2-(3-trifluoromethylphenylimino)-3-methyl-4-[N-(4-methylphenyl)carbamoylmethyl]-1,3-thiazol-4-ine hydrobromide] | 99
Br.Cn1c(CC(=O)Nc2cccc(C(F)(F)F)c2)csc1=Nc1cccc(C(F)(F)F)c1 [Compound 7, 2-(3-trifluoromethylphenylimino)-3-methyl-4-[N-(3-trifluoromethylphenyl)carbamoylmethyl]-1,3-thiazol-4-ine hydrobromide] | 97
Br.Cn1c(CC(=O)Nc2cccc(C(F)(F)F)c2)csc1=Nc1ccc(C(F)(F)F)cc1 [Compound 8, 2(4-trifluoromethylphenylimino)-3-methyl-4-[N-(3-trifluoromethylphenyl)carbamoylmethyl]-1,3-thiazol-4-ine hydrobromide] | 90
Br.Cc1ccc(NC(=O)Cc2csc(=Nc3ccc(Oc4ccccc4)cc3)n2C)cc1 [Compound 13, 2-(4-phenoxyphenylimino)-3-methyl-4-[N-(4-methylphenyl)carbamoylmethyl]-1,3-thiazol-4-ine hydrobromide] | 99
Br.Cc1ccc(NC(=O)Cc2csc(=Nc3ccc(C(F)(F)F)cc3)n2C)cc1 [Compound 14, 2-(4-trifluoromethylphenylimino)-3-methyl-4-[N-(4-methylphenyl)carbamoylmethyl]-1,3-thiazol-4-ine hydrobromide] | 99
Br.Cc1ccc(NC(=O)Cc2csc(=Nc3cccc([N+](=O)[O-])c3)n2C)cc1 [Compound 15, 2-(3-nitrophenylimino)-3-methyl-4-[N-(4-methylphenyl)carbamoylmethyl]-1,3-thiazol-4-ine hydrobromide] | 91
Br.Cc1ccc(NC(=O)Cc2csc(=Nc3ccc([N+](=O)[O-])cc3)n2C)cc1 [Compound 16, 2-(4-nitrophenylimino)-3-methyl-4-[N-(4-methylphenyl)carbamoylmethyl]-1,3-thiazol-4-ine hydrobromide] | 100
Br.Cn1c(CC(=O)Nc2cccc(Cl)c2)csc1=Nc1cccc([N+](=O)[O-])c1 [Compound 18, 2-(3-nitrophenylimino)-3-methyl-4-[N-(3-chlorophenyl)carbamoylmethyl]-1,3-thiazol-4-ine hydrobromide] | 93
Br.Cn1c(CC(=O)Nc2cccc(Cl)c2)csc1=Nc1cccc(C(F)(F)F)c1 [Compound 19, 2-(3-trifluoromethylphenylimino)-3-methyl-4-[N-(3-chlorophenyl)carbamoylmethyl]-1,3-thiazol-4-ine hydrobromide] | 91

Compound | Inhibiting Ratio (%) (at 250 ppm)
Br.Cn1c(CC(=O)Nc2cccc(Cl)c2)csc1=Nc1ccc(C(F)(F)F)cc1 [Compound 20, 2-(4-trifluoromethylphenylimino)-3-methyl-4-[N-(3-chlorophenyl)carbamoylmethyl]-1,3-thiazol-4-ine hydrobromide] | 91
Br.Cn1c(CC(=O)Nc2cccc(Cl)c2)csc1=Nc1cc(Cl)cc(Cl)c1 [Compound 21, 2-(3,5-dichlorophenylimino)-3-methyl-4-[N-(3-chlorophenyl)carbamoylmethyl]-1,3-thiazol-4-ine hydrobromide] | 88
Br.CC(C)=CCOc1cc(N=c2scc(CC(=O)Nc3ccccc3)n2C)ccc1Cl [Compound 22, 2-(4-chloro-3-(3,3-dimethylallyloxy)phenylimino)-3-methyl-4-(N-phenylcarbamoylmethyl)-1,3-thiazol-4-ine hydrobromide] | 97
Br.CC(C)OC(=O)c1cc(N=c2scc(CC(=O)Nc3ccccc3)n2C)ccc1Cl [Compound 23, 2-(4-chloro-3-isopropyloxycarbonylphenylimino)-3-methyl-4-(N-phenylcarbamoylmethyl)-1,3-thiazol-4-ine hydrobromide] | 96
Br.Cc1ccc(Cl)cc1N=c1scc(CC(=O)Nc2ccccc2)n1C [Compound 24, 2-(5-chloro-2-methylphenylimino)-3-methyl-4-(N-phenylcarbamoymethyl)-1,3-thiazol-4-ine hydrobromide] | 97
Br.Cc1cc(Cl)ccc1N=c1scc(CC(=O)Nc2ccccc2)n1C [Compound 25, 2-(4-chloro-2-methylphenylimino)-3-methyl-4-(N-phenylcarbamoylmethyl)-1,3-thiazol-4-ine hydrobromide] | 100
Br.Cc1cc(Br)ccc1N=c1scc(CC(=O)Nc2ccccc2)n1C [Compound 26, 2-(4-bromo-2-methylphenylimino)-3-methyl-4-(N-phenylcarbamoylmethyl)-1,3-thiazol-4-ine hydrobromide] | 100
Br.COc1ccccc1N=c1scc(CC(=O)Nc2ccc(C)cc2)n1C [Compound 28, 2-(2-methoxyphenylimino)-3-methyl-4-[N-(4-methylphenyl)carbamoylmethyl]-1,3-thiazol-4-ine hydrobromide] | 100
Br.COc1ccc(N=c2scc(CC(=O)Nc3ccc(C)cc3)n2C)cc1 [Compound 29, 2-(4-methoxyphenylimino)-3-methyl-4-[N-(4-methylphenyl)carbamoylmethyl]-1,3-thiazol-4-ine hydrobromide] | 100
Br.CCCCc1ccc(N=c2scc(CC(=O)Nc3ccc(C)cc3)n2C)cc1 [Compound 30, 2-[4-(n-butyl)phenylimino]-3-methyl-4-[N-(4-methylphenyl)carbamoylmethyl]-1,3-thiazol-4-ine hydrobromide] | 100
Br.Cc1ccc(NC(=O)Cc2csc(=Nc3ccc(Cl)cc3C)n2C)cc1 [Compound 32, 2-(4-chloro-2-methylphenylimino)-3-methyl-4-[N-(4-methylphenyl)carbamoylmethyl]-1,3-thiazol-4-ine hydrobromide] | 100
Br.Cc1ccc(NC(=O)Cc2csc(=Nc3ccc(Br)cc3C)n2C)cc1 [Compound 33, 2-(4-bromo-2-methylphenylimino)-3-methyl-4-[N-(4-methylphenyl)carbamoylmethyl]-1,3-thiazol-4-ine hydrobromide] | 100
Br.Cc1ccc(NC(=O)Cc2csc(=Nc3cc(Cl)ccc3C)n2C)cc1 [Compound 34, 2-(5-chloro-2-methylphenylimino)-3-methyl-4-[N-(4-methylphenyl)carbamoylmethyl]-1,3-thiazol-4-ine hydrobromide] | 100
Br.Cc1ccc(NC(=O)Cc2csc(=Nc3ccc(C)c(Cl)c3)n2C)cc1 [Compound 35, 2-(3-chloro-4-methylphenylimino)-3-methyl-4[N-(4-methylphenyl)carbamoylmethyl]-1,3-thiazol-4-ine hydrobromide] | 100
Br.COc1ccc(N=c2scc(CC(=O)Nc3cccc(C(F)(F)F)c3)n2C)cc1 [Compound 36, 2-(4-methoxyphenylimino)-3-methyl-4-[N-(3-trifluoromethylphenyl)carbamoylmethyl]-1,3-thiazol-4-ine hydrobromide] | 98
Br.Cn1c(CC(=O)Nc2ccccc2)csc1=Nc1ccc(Cl)c(C(F)(F)F)c1 [Compound 37, 2-(4-chloro-3-trifluoromethylphenylimino)-3-methyl-4-(N-phenylcarbamoylmethyl)-1,3-thiazol-4-ine hydrobromide] | 100
Br.Cn1c(CC(=O)Nc2ccccc2)csc1=Nc1ccc(OC(F)(F)F)cc1 [Compound 39, 2-(4-trifluoromethoxyphenylimino)-3-methyl-4-(N-phenylcarbamoylmethyl)-1,3-thiazol-4-ine hydrobromide] | 99
Br.Cn1c(CC(=O)Nc2ccccc2)csc1=Nc1ccc(Cl)cc1F [Compound 42, 2-(4-chloro-2-fluorophenylimino)-3-methyl-4-(N-phenylcarbamoylmethyl)-1,3-thiazol-4-ine hydrobromide] | 100
